Test results reported in ChEMBL document CHEMBL1128884, “Selective inhibition of the tyrosine kinase pp60src by analogs of 5,10-dihydropyrimido[4,5-b]quinolin-4(1H)-one” (Bioorg Med Chem Lett, 1995).

Legend:
[1] = biological target: cAMP-dependent protein kinase (PKA) (Homo sapiens, UniProt P22694+P17612+P22612); test: Inhibition of cAMP-dependent kinase (Protein kinase A); type: protein assay
[2] = biological target: Proto-oncogene tyrosine-protein kinase Src (Homo sapiens, UniProt P12931); test: Inhibition of cellular oncogene pp60 c-src
[3] = biological target: Epidermal growth factor receptor (Homo sapiens, UniProt P00533); test: Inhibition of epidermal growth factor receptor (EGFR)
Chain of Epidermal growth factor receptor (P00533 whole entry): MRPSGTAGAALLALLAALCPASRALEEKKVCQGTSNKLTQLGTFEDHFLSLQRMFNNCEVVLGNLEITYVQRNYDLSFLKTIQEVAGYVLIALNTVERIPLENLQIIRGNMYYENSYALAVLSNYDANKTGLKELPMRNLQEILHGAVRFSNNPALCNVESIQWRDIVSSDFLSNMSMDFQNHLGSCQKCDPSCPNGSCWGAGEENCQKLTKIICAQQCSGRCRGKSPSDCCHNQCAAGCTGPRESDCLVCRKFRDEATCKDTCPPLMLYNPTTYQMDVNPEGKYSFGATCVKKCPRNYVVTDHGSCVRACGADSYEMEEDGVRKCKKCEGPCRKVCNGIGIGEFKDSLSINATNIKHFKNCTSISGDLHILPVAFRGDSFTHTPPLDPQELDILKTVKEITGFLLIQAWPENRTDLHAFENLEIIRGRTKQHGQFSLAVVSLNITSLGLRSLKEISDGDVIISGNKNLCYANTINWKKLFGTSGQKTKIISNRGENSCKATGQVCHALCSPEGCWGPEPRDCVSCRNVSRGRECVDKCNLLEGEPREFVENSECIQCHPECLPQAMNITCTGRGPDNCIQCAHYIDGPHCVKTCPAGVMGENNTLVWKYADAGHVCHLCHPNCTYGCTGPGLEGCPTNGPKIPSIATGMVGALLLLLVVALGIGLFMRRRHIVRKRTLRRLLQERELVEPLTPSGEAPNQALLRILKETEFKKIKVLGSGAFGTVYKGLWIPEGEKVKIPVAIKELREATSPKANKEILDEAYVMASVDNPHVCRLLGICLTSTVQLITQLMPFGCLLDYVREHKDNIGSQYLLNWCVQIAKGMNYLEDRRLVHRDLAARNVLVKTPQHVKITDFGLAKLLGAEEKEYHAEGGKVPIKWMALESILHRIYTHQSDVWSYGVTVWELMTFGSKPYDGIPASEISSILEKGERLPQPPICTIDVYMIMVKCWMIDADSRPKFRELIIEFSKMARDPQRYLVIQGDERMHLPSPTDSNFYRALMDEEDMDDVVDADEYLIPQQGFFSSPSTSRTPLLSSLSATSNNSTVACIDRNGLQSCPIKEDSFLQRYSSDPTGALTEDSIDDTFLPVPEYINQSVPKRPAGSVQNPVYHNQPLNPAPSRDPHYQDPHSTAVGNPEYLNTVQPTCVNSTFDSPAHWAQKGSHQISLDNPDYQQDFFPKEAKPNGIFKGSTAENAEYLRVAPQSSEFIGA

Chain of Proto-oncogene tyrosine-protein kinase Src (P12931 2-536 limits assumed): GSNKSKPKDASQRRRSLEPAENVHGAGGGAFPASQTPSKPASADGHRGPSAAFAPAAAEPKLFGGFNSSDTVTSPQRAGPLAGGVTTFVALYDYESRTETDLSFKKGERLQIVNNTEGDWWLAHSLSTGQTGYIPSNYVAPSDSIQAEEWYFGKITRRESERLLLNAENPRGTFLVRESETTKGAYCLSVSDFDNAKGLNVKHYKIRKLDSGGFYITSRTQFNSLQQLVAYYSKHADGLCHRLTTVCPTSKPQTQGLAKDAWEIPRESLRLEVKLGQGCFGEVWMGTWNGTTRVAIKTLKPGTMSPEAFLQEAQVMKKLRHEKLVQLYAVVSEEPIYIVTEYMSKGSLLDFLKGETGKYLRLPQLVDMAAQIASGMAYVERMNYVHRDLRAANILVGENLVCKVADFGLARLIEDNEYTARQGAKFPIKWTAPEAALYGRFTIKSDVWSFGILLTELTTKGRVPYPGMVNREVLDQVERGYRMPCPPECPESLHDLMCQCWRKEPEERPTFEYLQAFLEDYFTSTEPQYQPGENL

Row | IC50 [1] [µM] | IC50 [2] [µM] | IC50 [3] [µM] | SMILES
1 | > 3000 | 0.5 | – | COc1ccc2c(c1)Nc1ncnc(O)c1C2
2 | – | 293 | – | Oc1[nH]cnc2nc3ccccc3c1-2
3 | > 1000 | 105 | – | COc1cc2c(cc1OC)Nc1ncn(CCN3CCOCC3)c(=O)c1C2
4 | > 3000 | 0.5 | 75 | COc1cc2c(cc1OC)Nc1ncnc(O)c1C2
5 | > 3000 | 9.1 | – | Oc1ncnc2c1Cc1ccccc1N2
6 | > 3000 | 3.7 | – | COc1ccc2c(c1)Cc1c(O)ncnc1N2
7 | > 3000 | 1.2 | 160 | COc1cc2c(cc1OC)Nc1ncn(C)c(=O)c1C2
8 | > 4000 | 1550 | – | Oc1cc(Nc2ccccc2)ncn1
9 | > 750 | 32 | – | COc1cc2cc3c(O)ncnc3nc2cc1OC
10 | > 3000 | 38 | – | CCc1nc(O)c2c(n1)Nc1ccccc1C2
11 | > 960 | 550 | – | CCN1c2ccccc2Cc2c(O)ncnc21
